Reference: patent US20170189372A1, “USE OF SUBSTITUTED CHROMAN COMPOUNDS” (INSTYTUT BIOLOGII MEDYCZNEJ, priority 2014, published 2017)

Legend:
[1] = tested on: reporter cell line for IL-2 (EL-4 cells); assay: FCC primary screening with IL-2 reporter cells; type: cell-based, mouse; conditions: relative viability×(relative fluorescence−100); PMA and ionomycin activated, compound 0.4 μg/ml, 18 h
Description: (§1) Development of reporter cell lines was described previously (Ulleras, E., D. Trzaska, et al. (2005); “Development of the “Cell Chip”: a new in vitro alternative technique for immunotoxicity testing”, Toxicology 206(2): 245-56). Briefly, EL-4 cells were stably transfected with transgene consisting of promoter regions from mouse β-actin, interleukin-2 (IL-2), interleukin-4 (IL-4), interferon-γ (IFN-γ), and interleukin-10 (IL-10) and ORF for EGFP. Reporter cells were cultured at density 5×10^5-1×10^6 cells/ml in a humidified atmosphere with 5% CO2 at 37° C. in RPMI 1640 with Glutamax supplemented with 20% FCS and 0.5 μg/ml G418.
When applicable, cells and reagents handling was performed by JANUS Automated Workstation (PerkinElmer, Waltham, Mass., USA). Cells were seeded at a density of 5×10^4 per well in 96-well plates. In the primary screening reporter cells for IL-2 activated with PMA (50 ng/ml) and ionomycin (1 μM) were seeded in a 96-well plate and incubated with compounds from the chemical library in a total volume of 100 μL at 37° C. in a humidified atmosphere with 5% CO2 for 18 h. Concentration of compounds was 0.4 μg/ml. The final DMSO concentration was 0.2%, DMSO is not cytotoxic towards EL-4 reporter cells at this concentration. Control samples consisted of cells in medium with 0.2% DMSO with PMA (50 ng/ml) and ionomycin (1 μM). Following incubation cells were analyzed by flow cytometry. Viability was assessed in parallel to the level of EGFP-mediated fluorescence.
Selection of compounds was based on FCC parameters calculated using the following formula:
FCC parameter=relative viability×(relative fluorescence−100)
(§2) Compounds after primary screening were considered to be hits when FCC parameter calculated after primary screening was ≦−5000. After secondary screening area under the curve (A) of FCC parameter versus relative concentration was calculated (maximum concentration used, i.e. 50 μg/ml, was assumed to be 1).

[2] = tested on: reporter cell line for β-actin (EL-4 cells); assay: FCC test, expanded version, β-actin reporter cell line; type: cell-based, mouse; conditions: PMA and ionomycin, 1.56 to 50 μg/ml, 50 μg/ml assumed to be 1
Description: as §1
as §2, with “1). […]” for “1).”
(§3) Flavonoids selected after preliminary screening were undergoing FCC testing using 5 reporter cell lines: for β-actin, interleukin-2 (IL-2), interleukin-4 (IL-4), interferon-γ (IFN-γ) and interleukin-10 (IL-10). The tested concentrations were in the range from 1.56 to 50 μg/ml.
(§4) Using flow cytometry mean fluorescence intensity (columns, left Y axis) and cell viability (dots, the right Y-axis) was determined for all the experimental points and normalized relative to the control—cells incubated with medium with PMA and ionomycin. The data is the mean of the three experiments ±SEM. The statistical significance of differences between means were determined: * p<0.05, ** p<0.01, *** p<0.001 versus control. Values above the graph represent the area under the curve showing the relationship of the FCC parameter and the relative compound concentration.

[3] = tested on: reporter cell line for interleukin-2 (EL-4 cells); assay: FCC test, expanded version, IL-2 reporter cell line; type: cell-based, mouse; conditions: IL-2 reporter line; PMA and ionomycin; 1.56 to 50 μg/ml, 50 μg/ml assumed to be 1
Description: as §1
as §2, with “1). […]” for “1).”
as §3, §4

[4] = tested on: reporter cell line for interleukin-4 (EL-4 cells); assay: FCC test, expanded version, IL-4 reporter cell line; type: cell-based, mouse; conditions: IL-4 reporter line; PMA and ionomycin; 1.56 to 50 μg/ml, 50 μg/ml assumed to be 1
Description: as §1
as §2, with “1). […]” for “1).”
as §3, §4

[5] = tested on: reporter cell line for interferon-γ (EL-4 cells); assay: FCC test, expanded version, IFN-γ reporter cell line; type: cell-based, mouse; conditions: PMA and ionomycin, 1.56 to 50 μg/ml, 50 μg/ml assumed to be 1
Description: as §1
as §2, with “1). […]” for “1).”
as §3, §4

[6] = tested on: reporter cell line for interleukin-10 (EL-4 cells); assay: FCC test, expanded version, IL-10 reporter cell line; type: cell-based, mouse; conditions: IL-10 reporter line; PMA and ionomycin; 1.56 to 50 μg/ml, 50 μg/ml assumed to be 1
Description: as §1
as §2, with “1). […]” for “1).”
as §3, §4

[7] = tested on: IL-2 production by Jurkat cells; assay: ELISA for IL-2 in Jurkat cells; type: cell-based; conditions: Jurkat cells, PMA and ionomycin, 24 hours; for inhibition at 50 µg/mL / inhibition at 10 µg/mL: Homo sapiens
Description: Jurkat cells were seeded in 48-well plates at a concentration of 1 million/ml. Cells activated with PMA (50 ng/ml) and ionomycin (1 uM) or resting were incubated with 50 selected flavonoids in a concentration of 10 μg/ml and 50 μg/ml for 24 hours in a humidified atmosphere with 5% CO 2 at 37° C. As a control, the respective cells in the medium or in a medium with PMA and ionomycin were employed. After incubation, cells were centrifuged (8 minutes, 1300 rpm), and the cell-free supernatants were stored at −20° C. until measurements. IL-2 was assessed using a commercially available ELISA kits according to the manufacturer's instructions. Each experiment was repeated 3 times.
FCC assay and ELISA assay were repeated three times. Relative data were presented as the means±SEM. […] Statistical significance of differences observed in both assays was tested with ANOVA followed by post hoc Dunnett test using GraphPad software (La Jolla, Calif., USA). In statistical analysis non-relative data were used

Row | SMILES | FCC parameter (IL-2 screening) [1] | The area under the curve showing the relationship between the FCC parameter and compound concentration, AKT [2] | The area under the curve showing the relationship between the FCC parameter and compound concentration, IL-2 [3] | The area under the curve showing the relationship between the FCC parameter and compound concentration, IL-4 [4] | The area under the curve showing the relationship between the FCC parameter and compound concentration, IFN [5] | The area under the curve showing the relationship between the FCC parameter and compound concentration, IL-10 [6] | Inhibition of IL-2 production (ELISA) ([7]; 10 μg/ml) | inhibition at 50 µg/mL ([7]; 50 μg/ml) [%] | Inhibition of IL-2 production (ELISA) ([7]; 50 μg/ml) [%] | inhibition at 10 µg/mL ([7]; 10 μg/ml) [%]
1 | COc1ccc(C2CC(=O)c3cc(O)cc(O)c3O2)cc1 (stereo not drawn) [Compound 1, 6,8-dihydroxy-2-(4-methoxyphenyl)chroman-4-one] | −8723 | −622 | −2178 | −194 | −1865 | −1435 | No | 97 | – | –
2 | CC1(C)CC2(CC(c3ccccc3)Oc3cc(O)ccc32)NC(=S)N1 (stereo not drawn) [Compound 2, Spiro[4H-1-benzopyran-4,4′(1′H)-pyrimidine]-2′(3′H)-thione, 2,3,5′,6′-tetrahydro-7-hydroxy-6′,6′-dimethyl-2-phenyl] | −5484 | −1120 | −2394 | 261 | −3977 | −2585 | 35% | – | 91 | –
3 | CC(=O)Oc1ccc(/C=C/C(=O)CC2OC(Oc3cc(OC(C)=O)c4c(c3)O[C@@H](c3ccc(OC(C)=O)cc3)CC4=O)C(OC(C)=O)C(OC(C)=O)C2OC(C)=O)cc1 (stereo partly drawn) [Compound 3, 4-(7-{6-[(3E)-4-(4-acetyloxyphenyl)-2-oxobut-3-enyl]-3,4,5-triacetyloxy(2H-3,4,5,6-tetrahydropyran-2-yloxy)}(2R)-5-acetyloxy-4-oxochroman-2-yl)phenyl acetate] | −5095 | 945 | −4581 | −308 | −3801 | −1509 | 64% | – | 68 | –
4 | CC(=O)Oc1ccc2c(c1)OC(c1ccccc1)CC21CC(C)(C)NC(=S)N1 (stereo not drawn) [Compound 4, 7-acetoksy-2,3,5′,6′-tetrahydro-6′,6′-dimetylo-2-fenylo-spiro[4H-1-benzopirano-4,4′(1′H)-pirymidyno]-2′(3′H)-tion] | −5692 | −104 | −1081 | 988 | −3521 | −1928 | 27% | – | 44 | –
5 | CC(C)=CCc1c(O)cc(O)c2c1OC(c1ccc(O)cc1)CC2=O (stereo not drawn) [Compound 5, 5,7-dihydroxy-2-(4-hydroxyphenyl)-8-(3-methylbut-2-enyl)chroman-4-one] | −5264 | −979 | −4991 | −3324 | −4565 | −3119 | – | 95 | – | 28
6 | O=C1CC(c2ccccc2O)Oc2ccc(O)cc21 (stereo not drawn) [Compound 6, 6-hydroxy-2-(2-hydroxyphenyl)chroman-4-one] | −5169 | 3622 | −2227 | 367 | −2999 | −179 | – | 100 | – | 58
7 | COc1ccc2c(c1)OC(c1cccc(OC)c1OC)CC2=O (stereo not drawn) [Compound 7, 2-(2,3-dimethoxyphenyl)-7-methoxychroman-4-one] | −6178 | −1357 | −4104 | −1865 | −5873 | −2889 | – | 92 | – | 67
8 | COc1cc(OC)c2c(c1)OC(c1ccccc1)CC2=O (stereo not drawn) [Compound 8, 5,7-dimethoxy-2-phenylchroman-4-one] | −5788 | 3973 | −2590 | 2380 | −4396 | −628 | – | 100 | – | 80
9 | COc1cccc2c1C(=O)CC(c1ccccc1)O2 (stereo not drawn) [Compound 9, 5-methoxy-2-phenylchroman-4-one] | −5636 | 3861 | −3872 | 675 | −4745 | −1472 | – | 92 | – | 43
